# Assay results as given in patent US6251903A, “Alkyl, azido, alkoxy, and fluoro-substituted and fused quinoxalinediones and the use thereof as glycine receptor antagonist” (priority 2000, dated 2001).
# Where two headings read alike, the source gives them in different places.
# How the values were obtained:
# [1] = biological target: NMDA receptor glycine sites; test: electrophysiological assay, cloned rat NMDA receptors expressed in Xenopus oocytes; format: cell-based; conditions: Table II; from electrophysiology using Xenopus oocytes
# Excerpt: (§1) The binding affinities of quinoxaline-2,3-diones at NMDA receptor glycine sites also were estimated by electrophysiological assays with either cloned rat NMDA receptors expressed in Xenopus oocytes, or non-NMDA receptors expressed in oocytes by whole rat brain poly(A)^+ RNA. […] For NMDA receptors Ki values were approximated by averaging values at three subtype combinations (NR1A/NR2A, NR1A/NR2B, and NR1A/NR2C).
# [2] = test system: mice; test: anticonvulsant activity in maximum electroshock seizure (MES) experiments in mice; format: in vivo, male Swiss/Webster mice; conditions: for ED100 / ED50: Mus musculus; for ED50: read-out: ED50 (MES); for ED50 as an anticonvulsant in the MES experiment in mice: route not stated
# Description: The seizure stimulus parameters were: 50 mA, 60 Hz, rectangular pulse, width 0.8 msec, duration 200 msec. Tonic hind limb extension observed after application of the electrical stimulus was recorded as occurrence of seizure. The drug was applied i.v. as an aqueous Tris (Tromethamine) solution.
# [3] = biological target: glycine binding site (Rattus norvegicus, UniProt P35439); test: affinity for the glycine binding site / glycine/NMDA receptor (Ki; method not stated)
# Excerpt: as §1
# [4] = test system: glycine binding site of the NMDA receptor; conditions: literature, cited from earlier work
compound,measurement,setting,value
"[N-]=[N+]=Nc1c(Cl)cc2[nH]c(=O)c(=O)[nH]c2c1Cl [Cl N3 Cl H, 6-azido-5,7-dichloro-1,4-dihydroquinoxaline-2,3-dione]",Ki,[1],536 nM
"O=c1[nH]c2cc(C(F)(F)F)cc([N+](=O)[O-])c2[nH]c1=O [NO2 H CF3 H, 7-trifluoromethyl-5-nitro-1,4-dihydroquinoxaline-2,3-dione]",ED100,"[2]; Table IV, i.v.",40 mg/kg
same,ED50,"[2]; Table IV, i.v.",17 mg/kg
same,IV peak of action,"[2]; Table IV, i.v.",30 min
same,% protection after 60 min.,"[2]; i.v., 40 mg/kg",62%
same,Ki,"[3]; Table IV, read-out: Ki",95 nM
"CCSc1c(Cl)cc2[nH]c(=O)c(=O)[nH]c2c1[N+](=O)[O-] [NO2 SEt Cl H, 7-Chloro-1,4-dihydro-6-ethylthio-5-nitroquinoxaline-2,3-dione]",Ki,[1],500 nM
"O=c1[nH]c2cc(Cl)c(Cl)cc2[nH]c1=O [6,7-dichloro-1,4-dihydroquinoxaline-2,3-dione]",glycine site antagonism or affinity (words),[4],competitive antagonist specific to the strychnine-insensitive [^3 H] glycine binding sites
same,glycine site antagonism or affinity (words),[4]; listed as drawing 6,"competitively displaced the strychnine-insensitive binding of [^3 H]glycine, without affecting the other binding sites on the NMDA receptor complex"
"O=c1[nH]c2ccc(F)cc2[nH]c1=O [F, reference compound]",Ki,"[3]; Table I, read-out: Ki",2880 nM
"CCOc1c(F)cc2[nH]c(=O)c(=O)[nH]c2c1[N+](=O)[O-] [NO2 OEt F H, 7-Fluoro-6-ethoxy-5-nitro-1,4dihydroquinoxaline-2,3-dione]",Ki,[1],1000 nM
"Cc1c(F)cc2[nH]c(=O)c(=O)[nH]c2c1[N+](=O)[O-] [NO2 Me F H, 7-Fluoro-6-methyl-5-nitro-1,4-dihydro-2,3-quinoxalinedione]",ED50 (MES),"[2]; Table III, i.v. injection",2 mg/kg
same,ED50 as an anticonvulsant in the MES experiment in mice,[2],2 mg/kg
same,Ki,[3],53 nM
same,Ki,[1],53 nM
"O=c1[nH]c2cc(F)c(F)cc2[nH]c1=O [H F F H, 6,7-Difluoro-1,4-dihydro-2,3-quinoxalinedione]",ED50,"[2]; iv, Table III, i.v. injection",15 mg/kg
same,Ki,"[3]; Table III, read-out: Ki",8200 nM
"Cc1cc2[nH]c(=O)c(=O)[nH]c2cc1C [H Me Me H, 6,7-Dimethyl-1,4-dihydroquinoxaline-2,3-dione]",Ki,[1],980 nM
"O=c1[nH]c2cc(Cl)c(F)c([N+](=O)[O-])c2[nH]c1=O [NO2 F Cl H, 7-Chloro-6-fluoro-5-nitro-1,4-dihydroquinoxaline-2,3-dione]",ED50,"[2]; iv, Table III, i.v. injection",0.9 mg/kg
same,Ki,"[3]; Table III, read-out: Ki",70 nM
O=c1[nH]c2cc(C(F)(F)F)cc(Cl)c2[nH]c1=O [Cl H CF3 H],ED100,"[2]; Table IV, i.v.",20 to 25 mg/kg
same,ED50,"[2]; Table IV, i.v.",10 mg/kg
same,IV peak of action,"[2]; Table IV, i.v.",15 min
same,% protection after 60 min.,"[2]; i.v., 20 mg/kg",62%
same,Ki,"[3]; Table IV, read-out: Ki",320 nM
"O=c1[nH]c2cc(Cl)c(Cl)c([N+](=O)[O-])c2[nH]c1=O [6,7-dichloro-5-nitro-1,4-dihydroquinoxaline-2,3-dione, reference compound]",ED50 (MES),"[2]; Table IV, i.v.",4 to 5 mg/kg
same,ED100 (MES),"[2]; Table IV, i.v.",7 to 10 mg/kg
same,IV peak of action,"[2]; Table IV, i.v.",5 min
same,% protection after 60 min.,"[2]; i.v., 10 mg/kg",55%
same,ED50 as an anticonvulsant in the MES experiment in mice,[2],4 to 5 mg/kg
"O=c1[nH]c2cc3c(c([N+](=O)[O-])c2[nH]c1=O)CCC3 [NO2 CH2 CH2 CH2 H, 5-Nitrocyclopento[g]-1,4-dihydroquinoxaline-2,3-dione]",Ki,[1],800 nM
Cc1cc2[nH]c(=O)c(=O)n(CC(=O)O)c2cc1C [Example 4a],glycine site antagonism or affinity (words),[4],functional antagonism
"O=c1[nH]c2cc(F)c(Br)c([N+](=O)[O-])c2[nH]c1=O [NO2 Br F H, 6-Bromo-7-Fluoro-5-nitro-1,4-dihydroquinoxaline-2,3-dione]",ED50,"[2]; iv, Table III, i.v. injection",3.5 mg/kg
same,Ki,"[3]; Table III, read-out: Ki",43 nM
"[N-]=[N+]=Nc1c(F)cc2[nH]c(=O)c(=O)[nH]c2c1[N+](=O)[O-] [NO2 N3 F H, 6-Azido-7-fluoro-5-nitro-1,4-dihydroquinoxaline-2,3-dione]",ED50,"[2]; iv, Table III, i.v. injection",7.5 mg/kg
same,Ki,"[3]; Table III, read-out: Ki",280 nM
same,Ki,[1],280 nM
"O=c1[nH]c2ccc(C(F)(F)F)cc2[nH]c1=O [CF3, reference compound]",Ki,"[3]; Table I, read-out: Ki",360 nM
"CCc1cc(Br)cc2[nH]c(=O)c(=O)[nH]c12 [Et H Br H, 7-Bromo-5-ethyl-1,4-dihydroquinoxaline-2,3-dione]",Ki,[1],900 nM
"O=c1[nH]c2cc3c(cc2[nH]c1=O)CCC3 [H CH2 CH2 CH2 H, Cyclopento[g]-1,4-dihydroquinoxaline-2,3-dione]",Ki,[1],6300 nM
"N#Cc1c(Cl)c([N+](=O)[O-])cc2[nH]c(=O)c(=O)[nH]c12 [CN Cl NO2 H, 6-Chloro-5-cyano-7-nitro-1,4-dihydroquinoxaline-2,3-dione]",Ki,[1],50 nM
"Cc1cc2[nH]c(=O)c(=O)[nH]c2c([N+](=O)[O-])c1Cl [NO2 Cl Me H, 6-Chloro-7-methyl-5-nitro-1,4-dihydroquinoxaline-2,3-dione]",ED50 as an anticonvulsant in the MES experiment in mice,[2],2 mg/kg
same,Ki,[3],27 nM
same,Ki,[1],27 nM
"O=c1[nH]c2cc3ccccc3cc2[nH]c1=O [H CH=CHCH=CH H, 1,4-dihydrobenzo[g]quinoxaline-2,3-dione]",Ki,[1],11000 nM
"Cc1cc(C)c2[nH]c(=O)c(=O)[nH]c2c1 [Me H Me H, 5,7-Dimethyl-1,4-dihydro-2,3-quinoxalinedione]",Ki,[1],1700 nM
"Cc1cc([N+](=O)[O-])c2[nH]c(=O)c(=O)[nH]c2c1 [NO2 H Me H, 7-Methyl-5-nitro-1,4-dihydro-2,3-quinoxalinedione]",Ki,[1],1200 nM
"Oc1nc2ccccc2nc1O [H, reference compound]",Ki,"[3]; Table I, read-out: Ki",2470 nM
"Oc1nc2cc(F)c(Cl)c(F)c2nc1O [F Cl F H, 6-Chloro-5,7-difluoro-1,4-dihydroquinoxaline-2,3-dione]",ED50,"[2]; iv, Table III, i.v. injection",10 mg/kg
same,Ki,[3],1000 nM
"[N-]=[N+]=Nc1c(Cl)c(Cl)cc2[nH]c(=O)c(=O)[nH]c12 [N3 Cl Cl H, 5-Azido-6,7-dichloro-1,4-dihydroquinoxaline-2,3-dione]",Ki,[1],71 nM
"O=[N+]([O-])c1ccc2nc(O)c(O)nc2c1 [NO2, reference compound]",Ki,"[3]; Table I, read-out: Ki",1390 nM
"N#Cc1ccc2nc(O)c(O)nc2c1 [CN, reference compound]",Ki,"[3]; Table I, read-out: Ki",4890 nM
"O=c1[nH]c2cc(F)c(Cl)c([N+](=O)[O-])c2[nH]c1=O [NO2 Cl F H, 6-Chloro-1,4-dihydro-7-fluoro-5-nitroquinoxaline-2,3-dione]",ED50,"[2]; iv, Table III, i.v. injection",4 to 5 mg/kg
same,Ki,"[3]; Table III, read-out: Ki",180 nM
"O=c1[nH]c2cc(F)c(F)c(F)c2[nH]c1=O [F F F H, 5,6,7-Trifluoro-1,4-dihydro-2,3-quinoxalinedione]",ED50,"[2]; iv, Table III, i.v. injection",4 to 5 mg/kg
same,ED100,"[2]; Table IV, i.v.",15 to 20 mg/kg
same,ED50 (MES),"[2]; Table IV, i.v.",4 to 5 mg/kg
same,IV peak of action,"[2]; Table IV, i.v.",2 min
same,% protection after 60 min.,"[2]; i.v., 10 mg/kg",0%
same,protection against MES after 60 min.,"[2]; i.v., after 60 min",no more protection was observed
same,Ki,"[3]; Table III, read-out: Ki",2970 nM
"N#Cc1c(Cl)c(Cl)cc2[nH]c(=O)c(=O)[nH]c12 [CN Cl Cl H, 5-Cyano-6,7-dichloro-1,4-dihydroquinoxaline-2,3-dione]",Ki,[1],15 nM
"Nc1ccc2[nH]c(=O)c(=O)[nH]c2c1 [NH2, reference compound]",Ki,[3]; Table I,inactive
O=c1[nH]c2cc(Cl)cc(C(F)(F)F)c2[nH]c1=O [CF3 H Cl H],ED100,"[2]; Table IV, i.v.",30 mg/kg
same,ED50,"[2]; Table IV, i.v.",10 mg/kg
same,IV peak of action,"[2]; Table IV, i.v.",30 min
same,% protection after 60 min.,"[2]; i.v., 30 mg/kg",87%
same,Ki,"[3]; Table IV, read-out: Ki",395 nM
"COc1c(F)cc2[nH]c(=O)c(=O)[nH]c2c1[N+](=O)[O-] [NO2 OMe F H, 7-Fluoro-6-methoxy-5-nitro-1,4-dihydroquinoxaline-2,3-dione]",ED50 (MES),"[2]; Table III, i.v. injection",7.5 mg/kg
same,Ki,[3],320 nM
same,Ki,[1],320 nM
